In US20240138406A1, “ANTIMICROBIAL PEPTIDE SCYAMPCIN44-63 AND APPLICATION THEREOF” (Xiamen University, priority 2021, published 2024):
No end group written: not given here.

System: Enterobacter cloacae QZ18103
Conditions: QZ18103, 24 h

## GKKKKRNMMKTKEPGIIFFF-NH2 [Scyampcin44-63]
  MBC: 3 to 6 µM
